Assay results published in US11358940B2, “K-Ras modulators” (THE REGENTS OF THE UNIVERSITY OF CALIFORNIA, priority 2017, dated 2022).

Key:
[1] = biological target: T1, GDP loaded KRAS4b(1-169) H95C/C118S mutant (Homo sapiens, UniProt P01116, C118S/H95C); test: MALDI-TOF percentage labeling of C95, GDP-loaded protein; format: binding; details: for level of covalent labeling to C95 (percent of labeling), GDP, 3 h: 3 h incubation; for level of covalent labeling to C95 (percent of labeling), GDP, 6 h: 6 h incubation; for level of covalent labeling to C95 (percent of labeling), GDP, 24 h: 24 h incubation
T1 construct: loaded KRAS4b(1-169) H95C/C118S mutant
Method: (§1) Table 1 is a table summarizing levels of covalent labeling to C95 as analyzed by MALDI-TOF MS for a series of synthesized compounds. […] Both species, GDP or nonhydrolyzable analogue of GTP—GppNHp-loaded KRAS4b H95C/C118S, were then reacted with a panel of epoxides and analyzed by MALDI-TOF MS to assess level of covalent modification to C95 after 3 h, 6 h, or 24 h of incubation with the protein. All R isomers show enhanced activity compared to S isomers.
(§2) Example 18: Percentage Labeling Determination for Compounds Targeting KRAS4b Residue 95 by Matrix Assisted Laser Desorption Ionization-Time of Flight Mass Spectrometry (MALDI-TOF)
(§3) The assay uses four tool proteins: • Guanosine diphosphate (GDP) loaded KRAS4b(1-169) H95C/C118S mutant • 5′-Guanylyl imidodiphosphate (GppNHp) loaded KRAS4b(1-169) H95C/C118S mutant • GDP loaded KRAS4b(1-169) C118S mutant • GppNHp loaded KRAS4b(1-169) C118S mutant
(§4) 20 μM Solution of protein in 20 mM HEPES, 150 mM NaCl, 1 mM MgCl2, pH 7.3 buffer was prepared freshly before assay. 20 μl Aliquots of protein were dispensed on 384 well polypropylene plate, then tested compounds (0.8 μl, 10 mM in DMSO) were added to appropriate wells. For each reaction/assay three blank and three control samples were prepared by mixing 20 μl of protein solution with 0.8 μl DMSO or 10 mM standards (compounds 994566 and FB9). The wells content was carefully mixed by aspiration, then plate was sealed by adhesive cover, centrifuged at 2000 g for 1 minute and kept in dark at room temperature for 3, 6 (or 8) and 24 h.
(§5) Before each assay MALDI target (Bruker MPT 384 ground steel BC) was pre-treated by pipetting on each spot 1 μl of saturated sinapinic acid in acetonitrile (ACN).
(§6) After 24 h reaction, 2 μl of reaction mixtures were pipetted out into 20 μl MALDI matrix solution (saturated solution of sinapinic acid in 1:1 ACN:water solution containing 0.75% trifluoroacetic acid (TFA)) deposited on 384 well polypropylene plate. Resulting solution was mixed by aspiration, centrifuged at 2000 g for 1 minute, then 2 μl aliquots were dispensed on pre-treated MALDI target using Beckman Coulter Biomek FX^P 96/Span-8 Laboratory Automation Workstation. Finally, the MALDI target was dried under mild vacuum to produce spots with fine crystalline structure.
MALDI-TOF measurements were performed on Bruker Daltonics ultraflex III TOF-TOF mass spectrometer using linear mode and mass range from 5 to 45 kDa. Detector gain was set to ×9 (1734 V), sample rate to 1 GS/s, smart beam parameter set: 3_medium was used, and the laser frequency was 66.7 Hz. Spectra were automatically collected using custom AutoXecute method. Laser power was auto-adjusted using fuzzy control. The peak selection range was set to be between 19000 and 20200 Da. Peak evaluation uses half width parameter set to be smaller than 30 Da. Fuzzy control used Proteins/Oligonucleotides protocol with minimum half width ⅙ times above threshold. Up to 1500 shots were collected in 500 shot steps. Dynamic termination was implemented to finish data collection when peak intensity was reaching value of 1200 [a.u.].
Spectra were smoothed by SavitzkyGolay algorithm using 5 m/z width and three cycles. Centroid peak detection algorithm was used with signal to noise threshold set to 4, relative intensity threshold 2%, minimum intensity threshold 20 [a.u.], peak width 10 m/z and TopHat baseline subtraction. Peak intensity and area under the peak were evaluated and recorded for all peaks between 19248 Da and 20500 Da for H95/C118 mutant and 19285 Da and 20500 Da for C118 mutant respectively.
Percent of labeling was calculated using followed equation:
[formula] Similar results were obtained when peak area instead of peak height was used for calculations, however peak height method produced more reliable data in case of poor quality spectra.

[2] = biological target: T2, GppNHp loaded KRAS4b(1-169) H95C/C118S mutant (Homo sapiens, UniProt P01116, C118S/H95C); test: MALDI-TOF percentage labeling of C95, GppNHp-loaded protein; format: binding; details: for level of covalent labeling to C95 (percent of labeling), GppNHp, 3 h: 3 h incubation; for level of covalent labeling to C95 (percent of labeling), GppNHp, 6 h: 6 h incubation; for level of covalent labeling to C95 (percent of labeling), GppNHp, 24 h: 24 h incubation
T2 construct: loaded KRAS4b(1-169) H95C/C118S mutant
Method: as §1
150 to 300 μM solution of GDP loaded protein in KRAS buffer was prepared (20 mM HEPES, 150 mM NaCl, 1 mM MgCl2, 0.05 mM TCEP, pH 7.3). To this was added vigorously 1500×molar excess of 1 M ammonium sulfate in KRAS buffer, and the combination mixed gently by inverting tube. Next was prepared 250 mM solution of GppNHp (150 molar excess of GppNHp to protein; keep it on ice). To the protein was pipetted 10% of prepared GppNHp solution, then suspension of alkaline phosphatase from calf intestine on agarose was added (Sigma-Aldrich, P0726) to have 2 units of enzyme per each mg of protein. The reaction mixture was incubated at room temperature, rotating end-over for 1 h 30 min. The alkaline phosphatase was removed on agarose beads by filtering solution to a new vial using Millex-GP syringe filter. Remaining solution of GppNHp was added and incubated for additional 45 min. At the end of the exchange the protein was filtered again, placed on ice, and purified on NGC medium-pressure chromatography system (Bio-Rad). Five in-lane connected desalting columns (5×GE Healthcare HiTrap Desalting columns 5 ml, 17-1408-01) were used with isocratic elution of KRAS buffer at 4 ml/min. The protein elution was monitored at 280 nm. The concentration of final protein was evaluated by NanoDrop 2000 spectrophotometer (Thermo Fisher) using molar attenuation coefficient ε=19685 l·mol^−1·cm^−1. The quality of the protein was confirmed by MALDI and the exchange rate was assessed by HPLC based assay.
as §2, §3, §4, §5, §6
MALDI-TOF measurements were performed on Bruker Daltonics ultraflex III TOF-TOF mass spectrometer using linear mode and mass range from 5 to 45 kDa. […]

Structure (SMILES)	level of covalent labeling to C95 (percent of labeling), GDP, 3 h [1] [%]	level of covalent labeling to C95 (percent of labeling), GDP, 6 h [1] [%]	level of covalent labeling to C95 (percent of labeling), GDP, 24 h [1] [%]	level of covalent labeling to C95 (percent of labeling), GppNHp, 3 h [2] [%]	level of covalent labeling to C95 (percent of labeling), GppNHp, 6 h [2] [%]	level of covalent labeling to C95 (percent of labeling), GppNHp, 24 h [2] [%]
Cc1ccc(S(=O)(=O)c2cn(CC3OC3(C)C)nn2)cc1 (stereo not drawn)	0	0	0	0	0	0
Cn1nc(C(=O)NCc2cn(C[C@H]3CO3)nn2)c2ccccc21	0	0	0	0	0	0
O=C(NCc1cn(C[C@@H]2CO2)nn1)c1c[nH]c2ccccc12	7	18	72	2	4	25
O=C(NCc1cn(C[C@H]2CO2)nn1)c1c[nH]c2ccccc12	0	5	31	0	2	11
Cn1nc(C(=O)NCc2cn(C[C@@H]3CO3)nn2)c2cc(Br)ccc21	23	52	96	0	4	19
CC(=O)Oc1ccccc1C(=O)NCc1cn(C[C@@H]2CO2)nn1	5	12	45	2	3	14
Cn1nc(C(=O)NCc2cn(C[C@H]3CO3)nn2)c2cc(Br)ccc21	3	10	49	0	2	10
